{
  "source": "patent US7361371B2",
  "about": "“Extract of petasites japonicus having neuroprotective effect and antioxidant activity” (Industry & Acacemic Cooreration in Chungnam National …, priority 2003, dated 2008)",
  "key": {"[1]": {"test_system": "lipid peroxidation in the brain of a mouse", "assay": "Inhibition of Fe2+/ascorbic acid-induced lipid peroxidation (TBARS) in mouse brain homogenate", "assay_type": "biochemical", "settings": "Fe2+ 0.2 mM / ascorbic acid 25 mM, 37° C., 30 minutes, TBARS at 533 nm", "procedure": "Concretely, the brain of an ICR male mouse (22.5±2.5 g, 6 to 8 weeks old) was removed and washed with 0.15 M KCl solution containing 2 mm EDTA. The washed brain was ground using a tissue homogenizer (Teflon pestle). To 1 ml of the ground brain, 1 ml of 8.1% SDS, 2 ml of 20% acetic acid and 1 ml of 0.75% thiobarbituric acid (TBA) were added. The resulting mixture was boiled, cooled in ice for 30 minutes and centrifuged at 14,000 rpm for 10 minutes to obtain the supernatant. To the supernatant, 1 ml of each of the various solvent fractions of Petasites japonicus from Example 1 was added and Fe^2+ 0.2 mM and ascorbic acid 25 mM were added. The resulting mixture was thoroughly mixed while stirring at 37° C. After 30 minutes, to the mixture, 15% trichloroacetic acid (TCA) and 0.75% TBA were added in the same volume as the mixture. The reaction was boiled for 15 minutes, stored in ice for 5 minutes and centrifuged at 3,000 rpm for 10 minutes to remove corpuscolates. The supernatant was taken and measured for absorption at 533 nm (Bidlack, W. T., and Tappel, A. L., Lipids, 1973, 8, 177-182). Malondialdehyde (Gutteridge, J. M. C., Analytical Biochemistry, 1975, 69, 518-526) produced by hydrolysis of 1,1,3,3,-tetraethoxypropane) was used for calibration.\nAsample: absorption of a mixture of brain hydrogenate, ascorbic acid/Fe^2+ and Petasites japonicus extract at 533 nm, […]"}, "[2]": {"test_system": "pyramidal cells in CA1 and CA3 sites of the hippocampus", "assay": "Tissue biopsy: surviving nerve cells in hippocampus after KA", "assay_type": "in vivo, mouse", "settings": "brain removed on the next day after KA; butanol fraction pretreated", "source_text": "Also, the brain removed on the next day after the administration of KA was subjected to a tissue biopsy to examine damage of pyramidal cells in CA1 and CA3 sites of the hippocampus."}, "[3]": {"assay": "Change in body weight and brain weight of mice", "procedure": "(§1) Male ICR mice (22.5±2.5 g, 6 to 8 weeks old) were freely fed with solid feed for experimental animals (SamYang Co. Korea) in a polycarbonate cage (5 animals per cage). The mice were bred under conditions including a temperature and a relative humidity maintained at 23±3° C. and 60±10%, respectively, a light-dark cycle of 12 hours and illumination of 150 to 200 Lux. Only the animals which had been judged to be healthy during the acclimation period were randomly assigned to groups for the experiment. The breeding and experiment of animals were performed according to Guide for care and use of laboratory animal (National Institutes of Health Guidelines, 1985, 85-23). The groups of mice were unspecifically grouped and the body weight was measured every day. […] After the KA injection, the behavioral change of the mice was monitored by the method of Kondo et al. (Journal of Cerebral Blood Flow and Metabolism, 1997, 17, 241-256). Also, on the next day after the KA injection, the brains were removed from the mice, frozen in liquid nitrogen and stored at −80° C. for 48 hours at maximum until used."}, "[4]": {"test_system": "lipid peroxidation in brain tissue", "assay": "KA-induced lipid peroxidation (TBARS amount) in brain homogenate of treated mice", "assay_type": "in vivo, mouse", "settings": "KA alone, or pre-treatment with butanol fraction 400 mg/kg, Fraction I or Fraction II", "description": "Concretely, the brains were removed from mice\nBrain tissue from each brain was crushed in 0.25M sucrose solution and the crushed brain homogenate was measured for the TBARS amount contained therein."}, "[5]": {"test_system": "ICR mice (neurotoxic behavior induced by KA)", "assay": "Neuronal behavior change (tail arch, tremor, seizure) after KA", "assay_type": "in vivo, mouse", "settings": "KA 44 mg/kg, fraction I or II 200 mg/kg", "procedure": "as §1"}, "[6]": {"test_system": "ICR mice (KA-induced oxidative neurotoxicity)", "assay": "Fatality rate of mice after kainic acid (KA) injection", "assay_type": "in vivo, mouse", "description": "KA, and KA and the butanol fraction of Petasites japonicus were administered and the fatality rate was measured.\nThe fractions were subjected to the same procedures as described above to measure the fatality rate."}, "glutathione peroxidase": {"test_system": "glutathione peroxidase", "assay_type": "in vivo, mouse", "settings": "KA alone or butanol fraction pre-administered; FIG. 6a"}, "glutathione (GSH)": {"test_system": "glutathione (GSH)", "assay_type": "in vivo, mouse", "settings": "KA administered alone", "procedure": "About 0.2 g of brain tissue from each brain was put into cold 6% metaphosphoric acid solution and crushed using a cold ceramic percussion motor. The crushed solution was centrifuged at 4° C., 27,000 g for 20 minutes. The supernatant was taken. To 0.05 Ml of the supernatant, 0.39 Ml of 100 mM phosphate buffer (pH 7.4) containing 5 mM EDTA, 0.025 ml of 10 mM DTNB (5,5-dithiobis-(2-nitrobenzoic acid)) and 0.08 ml of 5 mM NADPH were added and equilibrated at 25° C. for 3 minutes. Then, 2 units of glutathione (GSH) reductase was added thereto to initiate a reaction. The formation of 2-nitro-5-thiobenzoic acid was monitored by measuring the adsorption at 412 nm using a UV/VIS spectrophotometer (Roberts, J. C. and Francetic, D. J., Analytical Biochemistry, 1993, 211, 183-187; Raymond, C. et al., Journal of Nutrition, 1995, 125, 3062-3070). The total GSH amount contained in a sample was determined from a standard curve constructed by plotting the adsorption at 412 nm versus the known amount of GSH. The amount of GSH was shown by an average±S.E.M of data obtained by performing the experiment using 4 to 8 mice 3 times."}, "[7]": {"settings": "KA 44 mg/kg, fraction I or II 200 mg/kg"}, "[8]": {"settings": "KA 50 mg/kg, butanol fraction 400 mg/kg"}},
  "data": [
    {"smiles": "O=C1O[C@H]([C@@H](O)CO)C(O)=C1O", "note": "[Ascorbic acid]", "values": [
      {"measurement": "IC50 (inhibition of lipid peroxidation)", "setting": "[1]", "result": 790, "unit": "µg/mL"}
    ]},
    {"smiles": "C=C(C)[C@H]1CN[C@H](C(=O)O)[C@H]1CC(=O)O", "note": "[KA, kainic acid]", "values": [
      {"measurement": "Surviving nerve cells in the CA1 site of the hippocampus", "setting": "[2]", "result": 18.5, "unit": "%"},
      {"measurement": "Surviving nerve cells in the CA3 site of the hippocampus", "setting": "[2]", "result": 8.9, "unit": "%"},
      {"measurement": "Body weight change", "setting": "[3]; [7]", "result": "0.39 ± 0.29", "unit": "g"},
      {"measurement": "Brain weight", "setting": "[3]; [7]", "result": "0.327 ± 0.0098", "unit": "g"},
      {"measurement": "Final body weight", "setting": "[3]; [7]", "result": "29.88 ± 0.86", "unit": "g"},
      {"measurement": "Initial body weight", "setting": "[3]; [7]", "result": "29.49 ± 0.91", "unit": "g"},
      {"measurement": "Body weight change", "setting": "[3]; [8]", "result": "0.95 ± 0.385", "unit": "g"},
      {"measurement": "Brain weight", "setting": "[3]; [8]", "result": "0.346 ± 0.0038", "unit": "g"},
      {"measurement": "Final body weight", "setting": "[3]; [8]", "result": "32.34 ± 0.58", "unit": "g"},
      {"measurement": "Initial body weight", "setting": "[3]; [8]", "result": "31.39 ± 0.49", "unit": "g"},
      {"measurement": "TBARS content of brain homogenate (in words)", "setting": "[4]", "result": "increased"},
      {"measurement": "Tail arch (upper value, unit not given)", "setting": "[5]; stage 1", "result": "12.4 ± 4.7"},
      {"measurement": "Tail arch (value in brackets)", "setting": "[5]; stage 1", "result": "(100%)"},
      {"measurement": "Tremor (upper value, unit not given)", "setting": "[5]; stage 2", "result": "16.7 ± 6.1"},
      {"measurement": "Tremor (value in brackets)", "setting": "[5]; stage 2", "result": "(100%)"},
      {"measurement": "Seizure (upper value, unit not given)", "setting": "[5]; stage 3", "result": "18.9 ± 19.5"},
      {"measurement": "Seizure (value in brackets)", "setting": "[5]; stage 3", "result": "(100%)"},
      {"measurement": "Fatality rate", "setting": "[6]; Exp. Group 1: KA 50 mg/kg intraperitoneal, butanol fraction 400 mg/kg oral once per day for 4 days before KA", "result": 54, "unit": "%"},
      {"measurement": "Fatality rate", "setting": "[6]; Exp. Group 2: KA 50 mg/kg intraperitoneal, butanol fraction 150 mg/kg oral once per day for 4 days before KA", "result": 63.6, "unit": "%"},
      {"measurement": "Fatality rate", "setting": "[6]; [7]", "result": 54, "unit": "%"},
      {"measurement": "Glutathione peroxidase activity (in words)", "setting": "glutathione peroxidase", "result": "reduced"},
      {"measurement": "Total GSH amount in the brain tissue", "setting": "glutathione (GSH)", "result": 20, "unit": "%"}
    ]}
  ]
}
